This note sets out measurements from patent publication US9409884B2 (Rigel Pharmaceuticals, Inc., priority 2012, dated 2016).

pEC50: −log10 of the molar value.

The first assay addresses AMPK. Description: AMPK activation, enzyme-linked immunosorbent assay. The format is biochemical. Particulars: Table 8, compounds of Table 1. In short, it runs like this: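 Read-out: ELISA, used to detect compound-driven activation of AMPK.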
The compound `O=C(NC1CCN(Cc2ccc(N3CCOCC3)cc2)CC1)c1ccc(OC2CCN(c3ccc(C(F)(F)F)cc3)CC2)cn1` [Compound 1-40, N-(1-(4-morpholinobenzyl)piperidin-4-yl)-5-(1-(4-(trifluoromethyl)phenyl)piperidin-4-yloxy)picolinamide] had a pEC50 of over 7.00.

`O=C(NC1CCN(Cc2ccncc2)CC1)c1ccnc(OC2CCN(c3ccc(C(F)(F)F)cc3)CC2)c1` [Compound 1-20, N-(1-(pyridin-4-ylmethyl)piperidin-4-yl)-2-(1-(4-(trifluoromethyl)phenyl)piperidin-4-yloxy) isonicotinamide] showed a negative logarithm of the EC50 (pEC50) of 6.00 to 6.30.

`O=C(NC1CCN(Cc2cccnc2)CC1)c1cc2ccc(OC3CCN(c4ccc(C(F)(F)F)cc4)CC3)cc2o1` [Compound 1-96, N-(1-(pyridin-3-ylmethyl)piperidin-4-yl)-6-(1-(4-(trifluoromethyl)phenyl)piperidin-4-yloxy)benzofuran-2-carboxamide] had a pEC50 of over 7.00.

For the compound `CN(C(=O)c1cc2cc(OC3CCN(c4ccc(C(F)(F)F)cc4)CC3)ccc2o1)C1CCN(C(=O)OC(C)(C)C)CC1` [Compound 1-102, tert-butyl 4-(N-methyl-5-(1-(4-(trifluoromethyl)phenyl)piperidin-4-yloxy)benzofuran-2-carboxamido) piperidine-1-carboxylate], the pEC50 is 5.30 to 6.00.

The compound `O=C(NC1CCN(Cc2ccc(F)cc2)CC1)c1cc2ccc(OC3CCN(c4ccc(OC(F)(F)F)cc4)CC3)cc2o1` [Compound 1-94, N-(1-(4-fluorobenzyl)piperidin-4-yl)-6-(1-(4-(trifluoromethoxy)phenyl)piperidin-4-yloxy)benzofuran-2-carboxamide] had a negative logarithm of the EC50 (pEC50) of over 7.00.

Take `N#Cc1ccccc1CN1CCC(NC(=O)c2cc3ccc(OC4CCN(c5ccc(C(F)(F)F)cc5)CC4)cc3s2)CC1` [Compound 1-146, N-(1-(2-cyanobenzyl)piperidin-4-yl)-6-(1-(4-(trifluoromethyl)phenyl)piperidin-4-yloxy)benzo [b]thiophene-2-carboxamide]: the pEC50 is 6.30 to 7.00.

Compound `O=C(NC1CCN(Cc2ccc(F)cc2)CC1)c1ccc(OC2CCN(c3ccc(C(F)(F)F)cc3)CC2)nc1` [Compound 1-11, N-(1-(4-fluorobenzyl)piperidin-4-yl)-6-(1-(4-(trifluoromethyl)phenyl)piperidin-4-yloxy)nicotinamide] had a pEC50 of over 7.00.

`O=C(NC1CCN(Cc2ccncc2)CC1)c1ccc(OC2CCN(c3ccc(C(F)(F)F)cc3)CC2)cn1` [Compound 1-3, N-(1-(pyridin-4-ylmethyl)piperidin-4-yl)-5-(1-(4-(trifluoromethyl)phenyl)piperidin-4-yloxy)picolinamide] gave a pEC50 of over 7.00.

`O=C(N[C@@H]1CCN(Cc2ccncc2)C1)c1ccc(OC2CCN(c3ccc(C(F)(F)F)cc3)CC2)cn1` [Compound 1-25, (R)-N-(1-(pyridin-4-ylmethyl)pyrrolidin-3-yl)-5-(1-(4-(trifluoromethyl)phenyl)piperidin-4-yloxy)picolinamide]: the negative-log EC50 (pEC50) is 6.30 to 7.00.

The same assay, now with this note: Table 9, compounds of Table 2.
The compound `O=C(NC1CCN(C(=O)c2ccc(C(F)(F)F)cc2)CC1)c1ccc2[nH]c3c(c2c1)CN(c1ccc(F)cc1)CC3` [Compound 2-41, 2-(4-fluorophenyl)-N-(1-(4-(trifluoromethyl)benzoyl)piperidin-4-yl)-2,3,4,5-tetrahydro-1H-pyrido[4,3-b]indole-8-carboxamide] showed a negative logarithm of the EC50 (pEC50) of 4.30 to 5.00.

Still in this assay, the particulars now being: Table 10, compounds of Table 3.
Turning to `O=C(c1ccc(F)cc1)N1CC2CC1CN2C(=O)c1nc2ccc(OC3CCN(c4ccc(C(F)(F)F)cc4)CC3)cc2o1` (stereo not drawn) [Compound 3-13, (5-(4-fluorobenzoyl)-2,5-diazabicyclo[2.2.1]heptan-2-yl)(6-(1-(4-(trifluoromethyl)phenyl)piperidin-4-yloxy)benzo[d]oxazol-2-yl)methanone], the pEC50 was over 7.00.

In the case of `N#Cc1ccc(CN2CCC(NC(=O)c3ccc(C(=O)N4CCN(c5ccc(C(F)(F)F)cn5)CC4)cc3)CC2)cc1` [Compound 3-30, N-(1-(4-cyanobenzyl)piperidin-4-yl)-4-(4-(5-(trifluoromethyl)pyridin-2-yl)piperazine-1-carbonyl)benzamide], the pEC50 was over 7.00.

The assay is the same for the next values; noted with them: Table 12, compounds of Table 5.
`COc1ccc(CN2CCC(NC(=O)c3cccc(OC4CCN(Cc5ccc(Oc6ccc(C#N)cc6)cc5)CC4)c3)CC2)cc1` [Compound 5-113, 3-(1-(4-(4-cyanophenoxy)benzyl)piperidin-4-yloxy)-N-(1-(4-methoxybenzyl)piperidin-4-yl)benzamide]: the pEC50 was over 6.00.

As for `N#Cc1ccc(CN2CCC(Oc3ccc(C(=O)NC4CCNCC4)cc3)CC2)cc1` [Compound 5-79, 4-(1-(4-cyanobenzyl)piperidin-4-yloxy)-N-(piperidin-4-yl)benzamide], the negative-log EC50 (pEC50) is under 4.00.

The compound `O=C(NC1CCN(Cc2cccnc2)CC1)c1ccc(OC2CCN(c3ccc(C(F)(F)F)cc3)CC2)c(F)c1` [Compound 5-29, 3-fluoro-N-(1-(pyridin-3-ylmethyl)piperidin-4-yl)-4-(1-(4-(trifluoromethyl)phenyl)piperidin-4-yloxy)benzamide] had a pEC50 of over 6.00.

For the compound `CC(C)Oc1ccc(CN2CC[C@@H](Oc3cccc(C(=O)NC4CCN(Cc5ccc(C#N)cc5)CC4)c3)[C@H](F)C2)cc1` [Compound 5-127, N-(1-(4-cyanobenzyl)piperidin-4-yl)-3-((3,4-trans)-3-fluoro-1-(4-isopropoxybenzyl)piperidin-4-yloxy)benzamide], the negative-log EC50 (pEC50) is over 6.00.

Compound `O=C(NC1CCN(Cc2ccccc2)CC1)c1ccc(OC2CCN(Cc3ccccc3)CC2)c(Cl)c1` [Compound 5-14, N-(1-benzylpiperidin-4-yl)-4-(1-benzylpiperidin-4-yloxy)-3-chlorobenzamide] had a negative-log EC50 (pEC50) of over 6.00.

For the compound `N#Cc1ccc(CN2CCC(Oc3c(Cl)cc(C(=O)NC4CCN(Cc5ccccc5)CC4)cc3Cl)CC2)cc1` [Compound 5-77, N-(1-benzylpiperidin-4-yl)-3,5-dichloro-4-(1-(4-cyanobenzyl)piperidin-4-yloxy)benzamide], the negative logarithm of the EC50 (pEC50) was over 6.00.

The assay is the same for the next values; noted with them: Table 13, compounds of Table 6.
`CS(=O)(=O)c1ccc(C(=O)Nc2ccc3oc(C(=O)NC4CCN(Cc5ccc(C#N)cc5)CC4)cc3c2)cc1` [Compound 6-85, N-(1-(4-cyanobenzyl)piperidin-4-yl)-5-(4-(methylsulfonyl)benzamido) benzofuran-2-carboxamide] showed a pEC50 of 5.00 to 6.00.

Turning to `CS(=O)(=O)c1cccc(CN2CCN(C(=O)c3ccc4oc(C(=O)NC5CCN(Cc6ccc(C#N)c(F)c6)CC5)cc4c3)CC2)c1` [Compound 6-150, N-(1-(4-cyano-3-fluorobenzyl)piperidin-4-yl)-5-(4-(3-(methylsulfonyl)benzyl)piperazine-1-carbonyl) benzofuran-2-carboxamide], the pEC50 was over 7.00.

Regarding `CS(=O)(=O)c1ccc(CN2CCN(C(=O)c3ccc4oc(C(=O)NC5CCN(Cc6ccc(C#N)cc6)CC5)cc4c3)CC2)cc1C(F)(F)F` [Compound 6-105, N-(1-(4-cyanobenzyl)piperidin-4-yl)-5-(4-(4-(methylsulfonyl)-3-(trifluoromethyl)benzyl)piperazine-1-carbonyl) benzofuran-2-carboxamide], the negative-log EC50 (pEC50) was over 7.00.

Compound `Cc1cc2oc(C(=O)NC3CCN(Cc4ccc(C#N)cc4)CC3)cc2cc1NC(=O)C1CCN(c2ccc(C#N)cc2)CC1` [Compound 6-126, N-(2-(1-(4-cyanobenzyl)piperidin-4-ylcarbamoyl)-6-methylbenzofuran-5-yl)-1-(4-cyanophenyl)piperidine-4-carboxamide] had a pEC50 of over 7.00.

`N#Cc1ccc(CN2CCC(NC(=O)c3cc4cc(C(=O)N5CCN(Cc6ccc(-c7ccccn7)cc6)CC5)ccc4o3)CC2)cc1` [Compound 6-82, N-(1-(4-cyanobenzyl)piperidin-4-yl)-5-(4-(4-(pyridin-2-yl)benzyl)piperazine-1-carbonyl)benzofuran-2-carboxamide] had a pEC50 of over 7.00.

The assay is the same for the next values; noted with them: Table 14, compounds of Table 7.
Turning to `COc1ccc(C(=O)C2CCN(C(=O)c3ccc(C(=O)NC4CCN(Cc5ccc(OC)c(C#N)c5)C[C@@H]4C)cn3)CC2)cc1` (stereo partly drawn) [Compound 7-100, N-((3,4-cis)-1-(3-cyano-4-methoxybenzyl)-3-methylpiperidin-4-yl)-6-(4-(4-methoxybenzoyl)piperidine-1-carbonyl)nicotinamide], the negative logarithm of the EC50 (pEC50) is over 6.00.

Turning to `COc1ccc(CN2CCC(NC(=O)c3ccc(C(=O)N4CCC(C(=O)c5ccc(N6CCCC6)cc5)CC4)nc3)CC2)cc1` [Compound 7-109, N-(1-(4-methoxybenzyl)piperidin-4-yl)-6-(4-(4-(pyrrolidin-1-yl)benzoyl)piperidine-1-carbonyl)nicotinamide], the pEC50 is over 6.00.

The compound `COc1ccc(C(=O)C2CCN(C(=O)c3ccc(C(=O)NC4CCN(Cc5cccc(C(F)(F)F)c5)C[C@H]4F)cn3)CC2)cc1` (stereo partly drawn) [Compound 7-32, N-((3,4-trans)-3-fluoro-1-(3-(trifluoromethyl)benzyl)piperidin-4-yl)-6-(4-(4-methoxybenzoyl)piperidine-1-carbonyl)nicotinamide] had a negative-log EC50 (pEC50) of over 6.00.

In turn, `COCCN(C(=O)c1ccc(C(=O)N2CCC(C(=O)c3ccc(OC)cc3)CC2)nc1)C1CCN(Cc2ccc(OC(F)(F)F)cc2)CC1` [Compound 7-18, 6-(4-(4-methoxybenzoyl)piperidine-1-carbonyl)-N-(2-methoxyethyl)-N-(1-(4-(trifluoromethoxy)benzyl)piperidin-4-yl)nicotinamide] had a negative logarithm of the EC50 (pEC50) of over 6.00.

With `CS(=O)(=O)c1ccc(N2CCN(c3ccc(C(=O)NC4CCN(Cc5ccc(C#N)cc5)CC4)cn3)CC2)cc1` [Compound 7-77, N-(1-(4-cyanobenzyl)piperidin-4-yl)-6-(4-(4-(methylsulfonyl)phenyl)piperazin-1-yl)nicotinamide], the pEC50 was over 6.00.

With `N#Cc1ccc(CN2CCC(NC(=O)c3ccc(C(=O)N4CCC(Oc5ccc(C#N)cc5)CC4)nc3)[C@@H](F)C2)cc1` (stereo partly drawn) [Compound 7-67, N-((3,4-trans)-l-(4-cyanobenzyl)-3-fluoropiperidin-4-yl)-6-(4-(4-cyanophenoxy)piperidine-1-carbonyl)nicotinamide], the negative-log EC50 (pEC50) is over 6.00.

Regarding `Cc1cc(OC2CCN(C(=O)c3ccc(C(=O)Nc4ccc(Oc5ccc(C#N)cc5)nc4)cn3)CC2)ccc1S(C)(=O)=O` [Compound 7-15, N-(6-(4-cyanophenoxy)pyridin-3-yl)-6-(4-(3-methyl-4-(methylsulfonyl)phenoxy)piperidine-1-carbonyl) nicotinamide], the negative logarithm of the EC50 (pEC50) was 5.00 to 6.00.
